From patent US12427192B2, “Water soluble adjuvant and composition containing same” (Sumitomo Pharma Co., Ltd., priority 2019, dated 2025)

Columns and labels:
[1] = system: HLA-A*02:01/HLA-DRB1*01:01 transgenic mouse; experiment: Test 19: in vivo adjuvant activity (CTL and helper T-cell induction), cocktail vaccine n, IFNγ ELISPOT; conditions: added to cocktail vaccine n, 0.04 nmol or 0.4 nmol per body, twice
Description: Evaluation of In Vivo Adjuvant Activity in HLA-A*02:01/HLA-DRB1*01:01 Transgenic Mouse
The in vivo adjuvant activity of the compound of Example 1 was evaluated in the following procedure. To a cocktail vaccine comprising Peptide SEQ ID No. 1 prepared in Reference example 1 and Peptide SEQ ID No. 17 prepared in Reference example 20 with a preliminarily-emulsified composition (hereinafter, referred to as “cocktail vaccine n”) was added the compound prepared in Example 1 to prepare each vaccine. The vaccine was administered to a HLA-A*02:01/HLA-DRB1*01:01 transgenic mouse (C57BL/6CrHLA-A2.1DR1), and the adjuvant activity of each vaccine was evaluated by the method of testing antigen-specific CTL and antigen-specific helper T-cell induction. Peptide SEQ ID No. 17 is a helper peptide derived from WT1 protein.
Specifically, Peptide SEQ ID No. 1 and Peptide SEQ ID No. 17 were dissolved in DMSO, and then diluted with water for injection to concentrations of Peptide SEQ ID No. 1 of 2 mg/mL and Peptide SEQ ID No. 17 of 4 mg/mL. The prepared peptide dilution was mixed with an equal volume of the preliminary emulsified composition prepared like Test 4 to give an emulsified product, cocktail vaccine n. […] Then, after removal of the supernatant from the wells, stained spots on the ELISPOT plate were counted.

[2] = system: HLA-A*02:01 transgenic mouse; experiment: Test 15: in vivo adjuvant activity, cocktail vaccine j (hydrogel formulation), IFNγ ELISPOT; conditions: added to cocktail vaccine j (hydrogel formulation); 0.4 nmol per body, twice; FIG. 17 and 18
Description: Evaluation of In Vivo Adjuvant Activity in HLA-A*02:01 Transgenic Mouse
The in vivo adjuvant activity of the compound of Example 1 was evaluated in the following procedure. To a vaccine (hydrogel formulation) comprising Compound of formula 4 prepared in Reference example 8 and Peptide SEQ ID No. 3 prepared in Reference example 3 (hereinafter, referred to as “cocktail vaccine j”) was added the compound prepared in Example 1 to prepare a vaccine. The vaccine was administered to a HLA-A*02:01 transgenic mouse, and the adjuvant activity of the vaccine was evaluated by the method of testing antigen-specific CTL induction.
For example, the above hydrogel formulation was prepared as follows. Compound of formula 4, Peptide SEQ ID No. 3, and polyoxyethylene(196)polyoxypropylene(67) glycol were mixed with pH 2.5 buffer (10 mM tartaric acid) to adjust each concentration to 1.5 mg/mL, 1.125 mg/mL, and 200 mg/mL, respectively. The mixture was […] to give a hydrogel formulation, cocktail vaccine j. The amount of the preparation was adjusted as appropriate.
Cocktail vaccine j was injected to mice intradermally at the tail base area in an amount for administering 300 μg of Compound of formula 4 per body and 225 μg of Peptide SEQ ID No. 3 per body. […] Then, after removal of the supernatant from the wells, stained spots on the ELISPOT plate were counted.

[3] = system: HLA-A*24:02 transgenic mouse; experiment: Test 20: in vivo adjuvant activity, vaccine o (Compound of formula 5), IFNγ ELISPOT; conditions: added to vaccine o; 0.4 nmol per body, twice; FIG. 25
Description: Evaluation of In Vivo Adjuvant Activity in HLA-A*24:02 Transgenic Mouse
The in vivo adjuvant activity of the compound of Example 1 was evaluated in the following procedure. To a vaccine prepared by mixing Compound of formula 5 prepared in Reference example 22 with a preliminarily-emulsified composition (hereinafter, referred to as “vaccine o”) was added the compound prepared in Example 1 to prepare a vaccine. The vaccine was administered to a HLA-A*24:02 transgenic mouse, and the adjuvant activity of the vaccine was evaluated by the method of testing antigen-specific CTL induction.
Specifically, Compound of formula 5 was dissolved in DMSO, and then diluted with water for injection to concentrations of Compound of formula 5 of 3 mg/mL. The prepared compound dilution was mixed with an equal volume of the preliminary emulsified composition prepared like Test 4 to give an emulsified product, vaccine o. Vaccine o was injected to mice intradermally at the tail base area in an amount for administering 300 μg of Compound of formula 5 per body. […] Then, after removal of the supernatant from the wells, stained spots on the ELISPOT plate were counted.

CCCCCNc1nc(N)nc(C)c1Cc1ccc(CN(C)CCOCCOCCOCCOCCO)cc1OC [Example 1, 1-(4-{[2-amino-4-methyl-6-(pentylamino)pyrimidin-5-yl]methyl}-3-methoxyphenyl)-2-methyl-5,8,11,14-tetraoxa-2-azahexadecan-16-ol·trifluoroacetate]
more: CTL counts responsive to Peptide SEQ ID No. 1 compared with adding no compound ([1]; FIG. 23) | helper T-cell counts responsive to Peptide SEQ ID No. 17 compared with adding no compound ([1]; FIG. 24) | CTL counts responsive to Peptide SEQ ID No. 1 or SEQ ID No. 4 compared with adding no compound [2] | CTL counts responsive to Peptide SEQ ID No. 2 compared with adding no compound [3]
